Read-outs that look alike come from different tables or passages of the source.
Test system: test plant species in Direct Seeded Rice
Experiment: Postemergence herbicidal activity in direct seeded rice (Table 13)
Type: in vivo
Settings: for GR50 BRAPP / GR80 BRAPP / GR50 CYPSS / GR80 CYPSS / GR50 ECHSS / GR80 ECHSS / GR50 LEFSS / GR80 LEFSS / GR20 ORYSS / GR50 SCPJU / GR80 SCPJU / GR50 SEBEX / GR80 SEBEX: probit analysis; for GR20 ORYSS: ORYSS: Oryza sativa (crop); for pest or weed control at 35 g/ha / pest or weed control at 70 g/ha: post-emergence, 504 h
Description: Seeds or nutlets of the desired test plant species were planted in a soil matrix prepared by mixing a loam soil (43 percent silt, 19 percent clay, and 38 percent sand, with a pH of about 8.1 and an organic matter content of about 1.5 percent) and river sand in an 80 to 20 ratio. The soil matrix was contained in plastic pots with a surface area of 139.7 cm^2. When required to ensure good germination and healthy plants, a fungicide treatment and/or other chemical or physical treatment was applied. The plants were grown for 10-17 d in a greenhouse with an approximate 14-h photoperiod which was maintained at about 29° C. during the day and 26° C. during the night. Nutrients and water were added on a regular basis and supplemental lighting was provided with overhead metal halide 1000-Watt lamps as necessary. The plants were employed for testing when they reached the second or third true leaf stage. A weighed amount, determined by the highest rate to be tested, of each test compound was placed in 25 mL glass vials and dissolved in a volume of 97:3 v/v acetone-DMSO to obtain 12× stock solutions. […] The concentrated stock solutions were added to the spray solutions so that the final acetone and DMSO concentrations were 16.2% and 0.5%, respectively. Spray solutions were diluted to the appropriate final concentrations with the addition of 10 mL of an aqueous mixture of 1.5% (v/v) Agri-dex crop oil concentrate. […] Compound requirements are based upon a 12 mL application volume at a rate of 187 L/ha. Formulated compounds were applied to the plant material with an overhead Mandel track sprayer equipped with […] nozzles calibrated to deliver 187 L/ha over an application area of 0.503 square meters (m^2) at a spray height of 18 inches (43 cm) above average plant canopy height. Control plants were sprayed in the same manner with the solvent blank. The treated plants and control plants were placed in a greenhouse as described above and watered by sub-irrigation to prevent wash-off of the test compounds. After 20-22 days, the condition of the test plants, compared with that of the untreated plants, was determined visually and scored on a scale of 0 to 100 percent where 0 corresponds to no injury and 100 corresponds to complete kill. By applying the well-accepted probit analysis as described by J. Berkson in Journal of the American Statistical Society, 48, 565 (1953) and by D. Finney in “Probit Analysis” Cambridge University Press (1952), the above data can be used to calculate GR20, GR50, GR80 and GR90 values, which are defined as growth reduction factors that correspond to the effective dose of herbicide required to kill or control 20 percent, 50 percent, 80 percent or 90 percent, respectively, of a target plant.

[1] = BRAPP: broadleaf signalgrass, Brachiaria platyphylla
[2] = CYPSS: sedge (Cyperus difformis, esculentus, iria)
[3] = ECHSS: barnyardgrass (Echinochloa crus-galli), junglerice (Echinochloa colonum)
[4] = LEFSS: sprangletop (Leptochloa chinensis, Leptochloa dubia)
[5] = SCPJU: Japanese bulrush, Scirpus juncoides
[6] = SEBEX: hemp sesbania, Sesbania exaltata
[7] = BRAPP: broadleaf signalgrass, Brachiaria platyphylla, 35 g ai/ha, read-out: Visual Growth Reduction (%) 21 Days After Application BRAPP
[8] = BRAPP: broadleaf signalgrass, Brachiaria platyphylla, 70 g ai/ha, read-out: Visual Growth Reduction (%) 21 Days After Application BRAPP
[9] = CYPSS: sedge (Cyperus difformis, esculentus, iria), 35 g ai/ha, read-out: Visual Growth Reduction (%) 21 Days After Application CYPSS
[10] = CYPSS: sedge (Cyperus difformis, esculentus, iria), 70 g ai/ha, read-out: Visual Growth Reduction (%) 21 Days After Application CYPSS
[11] = ECHSS: barnyardgrass (Echinochloa crus-galli), junglerice (Echinochloa colonum), 35 g ai/ha, read-out: Visual Growth Reduction (%) 21 Days After Application ECHSS
[12] = ECHSS: barnyardgrass (Echinochloa crus-galli), junglerice (Echinochloa colonum), 70 g ai/ha, read-out: Visual Growth Reduction (%) 21 Days After Application ECHSS
[13] = LEFSS: sprangletop (Leptochloa chinensis, Leptochloa dubia), 35 g ai/ha, read-out: Visual Growth Reduction (%) 21 Days After Application LEFSS
[14] = LEFSS: sprangletop (Leptochloa chinensis, Leptochloa dubia), 70 g ai/ha, read-out: Visual Growth Reduction (%) 21 Days After Application LEFSS
[15] = ORYSS: Oryza sativa, 35 g ai/ha, read-out: Visual Growth Reduction (%) 21 Days After Application ORYSS
[16] = ORYSS: Oryza sativa, 70 g ai/ha, read-out: Visual Growth Reduction (%) 21 Days After Application ORYSS
[17] = SCPJU: Japanese bulrush, Scirpus juncoides, 35 g ai/ha, read-out: Visual Growth Reduction (%) 21 Days After Application SCPJU
[18] = SCPJU: Japanese bulrush, Scirpus juncoides, 70 g ai/ha, read-out: Visual Growth Reduction (%) 21 Days After Application SCPJU
[19] = SEBEX: hemp sesbania, Sesbania exaltata, 35 g ai/ha, read-out: Visual Growth Reduction (%) 21 Days After Application SEBEX
[20] = SEBEX: hemp sesbania, Sesbania exaltata, 70 g ai/ha, read-out: Visual Growth Reduction (%) 21 Days After Application SEBEX

SMILES	GR50 BRAPP [1]	GR80 BRAPP [1]	GR50 CYPSS [2]	GR80 CYPSS [2]	GR50 ECHSS [3]	GR80 ECHSS [3]	GR50 LEFSS [4]	GR80 LEFSS [4]	GR20 ORYSS	GR50 SCPJU [5]	GR80 SCPJU [5]	GR50 SEBEX [6]	GR80 SEBEX [6]	pest or weed control at 35 g/ha [7]	pest or weed control at 70 g/ha [8]	pest or weed control at 35 g/ha [9]	pest or weed control at 70 g/ha [10]	pest or weed control at 35 g/ha [11]	pest or weed control at 70 g/ha [12]	pest or weed control at 35 g/ha [13]	other results
COc1c(N)nc(-c2cc(F)c(Br)cc2F)nc1C(=O)O [Compound 11]	13 g ai/ha	44 g ai/ha	1 g ai/ha	1 g ai/ha	11 g ai/ha	25 g ai/ha	175 g ai/ha	463 g ai/ha	25 g ai/ha	1 g ai/ha	1 g ai/ha	3 g ai/ha	7 g ai/ha	60 to 74%	85 to 94%	95 to 100%	95 to 100%	85 to 94%	95 to 100%	0 to 29%	pest or weed control at 70 g/ha [14]: 0 to 29%; pest or weed control at 35 g/ha [15]: 30 to 44%; pest or weed control at 70 g/ha [16]: 45 to 59%; pest or weed control at 35 g/ha [17]: 95 to 100%; pest or weed control at 70 g/ha [18]: 95 to 100%; pest or weed control at 35 g/ha [19]: 95 to 100%; pest or weed control at 70 g/ha [20]: 95 to 100%
COC(=O)c1nc(-c2ccc(Br)cc2)c(Cl)c(N)c1Cl [Compound 47]	>70 g ai/ha	>70 g ai/ha	1 g ai/ha	3 g ai/ha	>70 g ai/ha	>70 g ai/ha	>70 g ai/ha	>70 g ai/ha	>70 g ai/ha	1 g ai/ha	1 g ai/ha	1 g ai/ha	1 g ai/ha	30 to 44%	30 to 44%	95 to 100%	95 to 100%	30 to 44%	0 to 29%	75 to 84%	pest or weed control at 70 g/ha [14]: 0 to 29%; pest or weed control at 35 g/ha [15]: 0 to 29%; pest or weed control at 70 g/ha [16]: 0 to 29%; pest or weed control at 35 g/ha [17]: 95 to 100%; pest or weed control at 70 g/ha [18]: 95 to 100%; pest or weed control at 35 g/ha [19]: 95 to 100%; pest or weed control at 70 g/ha [20]: 95 to 100%
COC(=O)c1nc(-c2ccc(C(F)(F)F)c(F)c2)c(Cl)c(N)c1Cl [Compound 58]	>70 g ai/ha	>70 g ai/ha	4 g ai/ha	8 g ai/ha	>70 g ai/ha	>70 g ai/ha	>70 g ai/ha	>70 g ai/ha	>70 g ai/ha	5 g ai/ha	8 g ai/ha	2 g ai/ha	4 g ai/ha	–	–	–	–	–	–	–	Visual Growth Reduction (%) 21 Days After Application BRAPP (BRAPP: broadleaf signalgrass, Brachiaria platyphylla, 35 g ai/ha): G (0-29); Visual Growth Reduction (%) 21 Days After Application BRAPP (BRAPP: broadleaf signalgrass, Brachiaria platyphylla, 70 g ai/ha): G (0-29); Visual Growth Reduction (%) 21 Days After Application CYPSS (CYPSS: sedge (Cyperus difformis, esculentus, iria), 35 g ai/ha): A (95-100); Visual Growth Reduction (%) 21 Days After Application CYPSS (CYPSS: sedge (Cyperus difformis, esculentus, iria), 70 g ai/ha): A (95-100); Visual Growth Reduction (%) 21 Days After Application ECHSS (ECHSS: barnyardgrass (Echinochloa crus-galli), junglerice (Echinochloa colonum), 35 g ai/ha): G (0-29); Visual Growth Reduction (%) 21 Days After Application ECHSS (ECHSS: barnyardgrass (Echinochloa crus-galli), junglerice (Echinochloa colonum), 70 g ai/ha): G (0-29); Visual Growth Reduction (%) 21 Days After Application LEFSS (LEFSS: sprangletop (Leptochloa chinensis, Leptochloa dubia), 35 g ai/ha): G (0-29); Visual Growth Reduction (%) 21 Days After Application LEFSS (LEFSS: sprangletop (Leptochloa chinensis, Leptochloa dubia), 70 g ai/ha): E (45-59); Visual Growth Reduction (%) 21 Days After Application ORYSS (ORYSS: Oryza sativa, 35 g ai/ha): G (0-29); Visual Growth Reduction (%) 21 Days After Application ORYSS (ORYSS: Oryza sativa, 70 g ai/ha): G (0-29); Visual Growth Reduction (%) 21 Days After Application SCPJU (SCPJU: Japanese bulrush, Scirpus juncoides, 35 g ai/ha): A (95-100); Visual Growth Reduction (%) 21 Days After Application SCPJU (SCPJU: Japanese bulrush, Scirpus juncoides, 70 g ai/ha): A (95-100); Visual Growth Reduction (%) 21 Days After Application SEBEX (SEBEX: hemp sesbania, Sesbania exaltata, 35 g ai/ha): A (95-100); Visual Growth Reduction (%) 21 Days After Application SEBEX (SEBEX: hemp sesbania, Sesbania exaltata, 70 g ai/ha): A (95-100)
Nc1cc(-c2ccc(Br)cc2F)nc(C(=O)O)c1Cl [Compound 74]	1 g ai/ha	5 g ai/ha	5 g ai/ha	10 g ai/ha	1 g ai/ha	1 g ai/ha	6 g ai/ha	13 g ai/ha	4 g ai/ha	1 g ai/ha	1 g ai/ha	1 g ai/ha	1 g ai/ha	95 to 100%	95 to 100%	95 to 100%	95 to 100%	95 to 100%	95 to 100%	95 to 100%	pest or weed control at 70 g/ha [14]: 95 to 100%; pest or weed control at 35 g/ha [15]: 60 to 74%; pest or weed control at 70 g/ha [16]: 60 to 74%; pest or weed control at 35 g/ha [17]: 95 to 100%; pest or weed control at 70 g/ha [18]: 95 to 100%; pest or weed control at 35 g/ha [19]: 95 to 100%; pest or weed control at 70 g/ha [20]: 95 to 100%

Source: patent publication US9113629B2, “4-amino-6-(4-substituted-phenyl)-picolinates and 6-amino-2-(4-substituted-phenyl)-pyrimidine-4-carboxylates and their use as herbicides” (DOW AGROSCIENCES LLC, priority 2013, dated 2015)
